# How the values were obtained:
# [1] = MTS cytotoxicity assay in HEK Blue cells; format: cell-based; details: human, HEK Blue CD40 sensor cells; HEK Blue cells, 24 h; read-out: LC50 (cytotoxicity, MTS)
# From the text: (§1) As further confirmation of the inhibitory activity of our compounds, a cell-based assay was used with sensor cells (HEK Blue CD40) containing a secreted embryonic alkaline phosphatase (SEAP) reporter gene under the control of a promoter fused to a NF-κB binding site and transfected with CD40. […] For all tested compounds, the corresponding IC50 values are higher than those determined in the cell-free binding inhibition assay (Table 1) representing a loss of activity which is likely due to non-specific binding on account of the presence of proteins and cells in the assay, as well as hydrophobicity-related problems. Cytotoxicities were also evaluated in these same cells and at the same concentrations using a standard MTS assay to ensure that effects are present at non-toxic concentration levels.
# (§2) For the MTS assay, HEK Blue cells were cultured and prepared in the same manner as in the CD40 sensor assay. Then cells were added to a 96-well microtiter plate at a density of 50,000 cells/well in the absence or presence of various concentrations of compounds diluted in the same media, without the addition of CD154. The plate was incubated at 37 °C for 24 h. 20 µL per well of MTS, 3-(4,5-dimethylthiazol-2-yl)-5-(3-carboxymethoxyphenyl)-2-(4-sulfophenyl)-2H-tetrazolium, (Promega, Madison, WI, USA) was added to the culture after treatments, and cells were incubated at 37 °C for 4 h. Formazan levels were measured using a plate reader at 490 nm.
# (§3) All binding inhibition and cell assays were tested in duplicate or triplicate per plates, and assays were performed as at least three independent experiments. As before, binding and cytotoxicity data were converted to percent inhibition and fitted with standard log inhibitor vs. normalized response models using nonlinear regression in GraphPad Prism (GraphPad, La Jolla, CA, USA) to establish half-maximal (median) inhibitory concentration (IC50) or median lethal concentration (LC50) values. Cell assay data were fitted with a similar model that also allowed for a variable slope using the log inhibitor vs. normalized response (variable slope) model from Prism with a Hill slope (n) shared across all compounds. Cell assays and draining lymph node data were analyzed by one-way repeated-measures analysis of variance (ANOVA) followed by Dunnett’s multiple comparison test as a post hoc test for individual differences using GraphPad Prism and a significance level of p < 0.05 for all comparisons.
# HEK Blue cells = experiment: MTS cytotoxicity assay in HEK Blue cells; format: cell-based; details: LC50 (MTS) / NF-κB IC50 in sensor cells
# From the text: as §1, §2, §3
# CD40–CD154 (CD40L) = biological target: T1, CD40–CD154 (CD40L) (Homo sapiens, UniProt P29965); set-up: method as in PMID 29024591; details: 95% CI of 235–401; read-out: CD40–CD154 IC50 (previous assessment); cited from earlier work
# T1 construct: purchased Enzo Life Sciences
# T1 sequence (P29965 116-261 limits assumed): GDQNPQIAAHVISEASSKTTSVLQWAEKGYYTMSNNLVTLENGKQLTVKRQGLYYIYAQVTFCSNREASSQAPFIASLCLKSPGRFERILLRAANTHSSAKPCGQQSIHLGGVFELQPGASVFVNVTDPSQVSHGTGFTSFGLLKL
Structure (SMILES),CC50 at 24 h [1] [µM],"therapeutic index, TI = LC50/IC50 (HEK Blue cells)",IC50 (CD40–CD154 (CD40L)) [µM]
"O=C(Nc1ccc(-c2ccc(C(=O)Nc3cccc4cccc(S(=O)(=O)O)c34)cc2)nc1)c1ccc([N+](=O)[O-])cc1 [Compound 18, 8-(4-(5-(4-Nitrobenzamido)pyridin-2-yl)benzamido)naphthalene-1-sulfonic acid]",131,15,
"O=C(Nc1ccc(-c2ccc(C(=O)Nc3cccc4cccc(S(=O)(=O)O)c34)cc2)cc1)c1ccc([N+](=O)[O-])cc1 [Compound 6, 8-(4′-(4-Nitrobenzamido)biphenyl-4-ylcarboxamido)naphthalene-1-sulfonic acid]",,,0.307

# — publication PMC5978685, “Design, Synthesis, and Evaluation of Novel Immunomodulatory Small Molecules Targeting the CD40–CD154 Costimulatory Protein-Protein Interaction” (Molecules : A Journal of Synthetic Chemistry and Natural …, 2018)
